# Compound: Cc1ccccc1C(C(=O)NC1CCCCC1)N(C(=O)Cn1ccnc1C)c1cccc(F)c1 [IDH-C35] + NC(=O)Nc1cc(-c2cccc(F)c2)sc1C(=O)N[C@H]1CCCNC1 [AZD7762] (partner 0.2 µM)
# Experiment: relative viability (nuclei count vs DMSO), 5 days (fraction); higher = more cells survive
# Details: first compound 0.08 µM
# Method in brief: (§1)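 Relative viability divides the nuclei count in treated wells by that in vehicle wells. Lung cancer cell lines were seeded in 1536-well plates, dosed by pin tool the next day, and fixed and stained after 5 days in one step with final 0.05% Triton X-100, 1% formaldehyde and 1 ug/ml Hoechst. Dosing was a single drug or a fixed anchor-drug dose plus five library-drug doses (not always all listed) in √10 steps, and values are medians of duplicate plates imaged at 4×.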
row,Cell Line,relative viability
1,NCI-H522,0.845
2,NCI-H727,0.633
3,NCI-H1993,0.755
4,NCI-H838,1.09
5,LCLC-103H,0.831
6,NCI-H2126,0.983
7,EMC-BAC-2,1.1
8,NCI-H2085,1.04
9,HCC-366,0.306
10,NCI-H1666,0.934
11,NCI-H596,0.959
12,LK-2,0.422
13,NCI-H2087,1.39
14,NCI-H2342,0.521
15,H3255,0.814
16,LOU-NH91,0.805
17,ChaGo-K-1,0.97
18,NCI-H2170,1.04
19,SW 900,0.564
20,CAL-12T,0.545

# Same assay, conditions: first compound 0.253 µM
row,Cell Line,relative viability
1,NCI-H522,0.934
2,NCI-H727,0.655
3,NCI-H1703,0.141
4,NCI-H1993,0.749
5,NCI-H838,0.922
6,LCLC-103H,0.792
7,NCI-H2126,0.96
8,EMC-BAC-2,1.12
9,NCI-H2085,1.09
10,HCC-366,0.306
11,NCI-H1666,1.03
12,NCI-H596,1.14
13,LK-2,0.542
14,NCI-H2087,1.32
15,NCI-H2342,0.563
16,H3255,0.947
17,LOU-NH91,0.73
18,ChaGo-K-1,0.928
19,NCI-H2170,0.919
20,SW 900,0.787
21,NCI-H1648,0.578
22,CAL-12T,0.569

# Same assay, conditions: first compound 0.8 µM
row,Cell Line,relative viability
1,NCI-H522,0.868
2,NCI-H727,0.539
3,NCI-H1993,0.755
4,NCI-H838,0.918
5,LCLC-103H,0.81
6,NCI-H2126,0.983
7,EMC-BAC-2,1.16
8,NCI-H2085,0.953
9,HCC-366,0.233
10,NCI-H1666,0.795
11,NCI-H596,1.01
12,LK-2,0.37
13,NCI-H2087,1.16
14,NCI-H2342,0.498
15,H3255,0.924
16,LOU-NH91,0.753
17,ChaGo-K-1,0.899
18,NCI-H2170,0.899
19,NCI-H1648,0.781
20,CAL-12T,0.686

# Same assay, conditions: first compound 2.53 µM
row,Cell Line,relative viability
1,NCI-H522,0.788
2,NCI-H727,0.469
3,NCI-H1703,0.131
4,NCI-H1993,0.784
5,NCI-H838,0.953
6,LCLC-103H,0.779
7,NCI-H2126,0.927
8,EMC-BAC-2,1.18
9,NCI-H2085,0.985
10,HCC-366,0.227
11,NCI-H1666,0.712
12,NCI-H596,1.05
13,LK-2,0.444
14,NCI-H2087,1.23
15,NCI-H2342,0.572
16,H3255,0.88
17,LOU-NH91,0.765
18,ChaGo-K-1,0.819
19,NCI-H2170,0.786
20,SW 900,0.505
21,NCI-H1648,0.687
22,CAL-12T,0.589

# Same assay, conditions: first compound 8 µM
row,Cell Line,relative viability
1,NCI-H522,0.985
2,NCI-H727,0.597
3,NCI-H1703,0.148
4,NCI-H1993,0.713
5,NCI-H838,0.925
6,LCLC-103H,0.829
7,NCI-H2126,0.946
8,EMC-BAC-2,1.16
9,NCI-H2085,0.924
10,HCC-366,0.281
11,NCI-H1666,0.94
12,NCI-H596,1.26
13,LK-2,0.336
14,NCI-H2087,1.36
15,NCI-H2342,0.384
16,H3255,0.829
17,LOU-NH91,0.815
18,ChaGo-K-1,0.818
19,NCI-H2170,0.757
20,SW 900,0.549
21,NCI-H1648,0.703
22,CAL-12T,0.577

# Compound: CC1=C(C(=NN1)C)CC2=C(C3=C(S2)N(C(=O)N(C3=O)C)CC(C)C)C(=O)N4C[C@@H](CO4)O + O=C(c1cc(Cc2n[nH]c(=O)c3ccccc23)ccc1F)N1CCN(C(=O)C2CC2)CC1 [Olaparib] (partner 8 µM)
# Experiment: as above
# Details: first compound 0.0025 µM
# Method in brief: as §1
row,Cell Line,relative viability
1,NCI-H522,0.793
2,NCI-H727,0.813
3,NCI-H1650,0.826
4,EBC-1,0.738
5,NCI-H1703,0.467
6,NCI-H1993,0.964
7,SW 1573,0.462
8,NCI-H838,0.741
9,LCLC-103H,0.797
10,NCI-H520,0.286
11,NCI-H2126,0.962
12,EMC-BAC-2,0.546
13,NCI-H2085,0.736
14,Calu-6,0.532
15,HCC-366,0.379
16,NCI-H1666,0.751
17,NCI-H596,0.765
18,LK-2,0.743
19,NCI-H2087,0.67

row,Cell Line,relative viability
1,NCI-H2342,0.463
2,SK-MES-1,0.702
3,H3255,0.555
4,COR-L23,0.404
5,COR-L 105,0.604
6,IA-LM,0.907
7,LOU-NH91,0.912
8,ChaGo-K-1,0.466
9,NCI-H2170,0.582
10,A549,0.322
11,SW 900,0.805
12,NCI-H1648,0.878
13,NCI-H2009,0.704
14,NCI-H661,0.72
15,SK-LU-1,0.439
16,NCI-H1299,0.986
17,CAL-12T,0.732
18,NCI-H2228,0.609
19,NCI-H2023,0.47

# Same assay, conditions: first compound 0.007906 µM
row,Cell Line,relative viability
1,NCI-H522,0.646
2,NCI-H727,0.762
3,NCI-H1650,0.823
4,EBC-1,0.705
5,NCI-H1703,0.348
6,NCI-H1993,0.957
7,SW 1573,0.515
8,NCI-H838,0.714
9,LCLC-103H,0.735
10,NCI-H520,0.296
11,NCI-H2126,0.951
12,EMC-BAC-2,0.464

# From the supplement of paper PMC10307832
